In publication PMC12102023 (Saudi Pharmaceutical Journal : SPJ, 2025):
Like-named read-outs stand apart in the source and are kept apart here.

Tests used:
[1] = tested on: HeLa (cervical epithelioid carcinoma); assay: MTT antiproliferation assay, HeLa; assay type: cell-based, human
[2] = tested on: HCT116 (colorectal carcinoma); assay: MTT antiproliferation assay, HCT116; assay type: cell-based; conditions: Homo sapiens, HCT-116, read-out: IC50 (µM) HCT- 116
[3] = tested on: MCF7 (mammary gland breast cancer); assay: MTT antiproliferation assay, MCF7; assay type: cell-based; conditions: Homo sapiens, MCF7, read-out: IC50 (µM) MCF- 7
CDK9 = CDK9 (Homo sapiens, UniProt P50750); assay: biochemical
Sequence of CDK9 (P50750 whole entry): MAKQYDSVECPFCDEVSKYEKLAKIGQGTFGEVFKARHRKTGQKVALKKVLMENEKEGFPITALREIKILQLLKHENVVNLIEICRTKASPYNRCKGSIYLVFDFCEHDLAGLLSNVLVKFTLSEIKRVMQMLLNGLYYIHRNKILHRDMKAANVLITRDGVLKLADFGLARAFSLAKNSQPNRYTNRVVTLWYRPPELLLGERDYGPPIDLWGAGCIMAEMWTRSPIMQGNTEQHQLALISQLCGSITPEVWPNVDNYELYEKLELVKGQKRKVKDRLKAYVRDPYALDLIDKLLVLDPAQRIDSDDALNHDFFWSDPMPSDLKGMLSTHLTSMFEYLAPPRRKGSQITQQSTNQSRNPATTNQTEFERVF
Sequence of CDK9 (O60563 whole entry partner): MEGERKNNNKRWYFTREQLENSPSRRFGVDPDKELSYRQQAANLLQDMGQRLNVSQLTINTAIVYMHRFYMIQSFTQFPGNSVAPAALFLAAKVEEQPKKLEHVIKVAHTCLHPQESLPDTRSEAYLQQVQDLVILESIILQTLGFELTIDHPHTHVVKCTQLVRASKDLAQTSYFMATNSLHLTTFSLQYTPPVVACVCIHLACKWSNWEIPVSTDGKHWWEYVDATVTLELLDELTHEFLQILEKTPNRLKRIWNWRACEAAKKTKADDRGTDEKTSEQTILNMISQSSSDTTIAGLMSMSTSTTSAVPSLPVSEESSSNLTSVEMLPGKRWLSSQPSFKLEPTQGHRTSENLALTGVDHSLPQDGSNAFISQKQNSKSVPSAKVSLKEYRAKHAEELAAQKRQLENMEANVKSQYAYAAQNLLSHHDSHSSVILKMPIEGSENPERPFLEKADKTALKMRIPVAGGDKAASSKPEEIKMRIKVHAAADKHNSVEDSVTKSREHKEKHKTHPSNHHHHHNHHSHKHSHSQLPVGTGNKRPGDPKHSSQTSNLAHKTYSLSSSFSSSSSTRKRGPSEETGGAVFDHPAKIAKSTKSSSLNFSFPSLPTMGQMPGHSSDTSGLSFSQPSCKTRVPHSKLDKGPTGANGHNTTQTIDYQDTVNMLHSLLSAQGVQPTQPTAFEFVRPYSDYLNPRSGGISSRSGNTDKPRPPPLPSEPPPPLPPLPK

[4] = tested on: WI- 38 (embryonic lung fibroblasts); assay: MTT assay, WI-38 fibroblasts; assay type: cell-based; conditions: Homo sapiens, WI-38, read-out: IC50 (µM) WI- 38
[5] = tested on: HepG2 (hepatocellular carcinoma); assay: MTT antiproliferation assay, HepG2; assay type: cell-based, human
CDK12 = CDK12 (Homo sapiens, UniProt Q9NYV4); assay: CDK12 inhibition assay; assay type: biochemical
Sequence of CDK12 (Q9NYV4 whole entry): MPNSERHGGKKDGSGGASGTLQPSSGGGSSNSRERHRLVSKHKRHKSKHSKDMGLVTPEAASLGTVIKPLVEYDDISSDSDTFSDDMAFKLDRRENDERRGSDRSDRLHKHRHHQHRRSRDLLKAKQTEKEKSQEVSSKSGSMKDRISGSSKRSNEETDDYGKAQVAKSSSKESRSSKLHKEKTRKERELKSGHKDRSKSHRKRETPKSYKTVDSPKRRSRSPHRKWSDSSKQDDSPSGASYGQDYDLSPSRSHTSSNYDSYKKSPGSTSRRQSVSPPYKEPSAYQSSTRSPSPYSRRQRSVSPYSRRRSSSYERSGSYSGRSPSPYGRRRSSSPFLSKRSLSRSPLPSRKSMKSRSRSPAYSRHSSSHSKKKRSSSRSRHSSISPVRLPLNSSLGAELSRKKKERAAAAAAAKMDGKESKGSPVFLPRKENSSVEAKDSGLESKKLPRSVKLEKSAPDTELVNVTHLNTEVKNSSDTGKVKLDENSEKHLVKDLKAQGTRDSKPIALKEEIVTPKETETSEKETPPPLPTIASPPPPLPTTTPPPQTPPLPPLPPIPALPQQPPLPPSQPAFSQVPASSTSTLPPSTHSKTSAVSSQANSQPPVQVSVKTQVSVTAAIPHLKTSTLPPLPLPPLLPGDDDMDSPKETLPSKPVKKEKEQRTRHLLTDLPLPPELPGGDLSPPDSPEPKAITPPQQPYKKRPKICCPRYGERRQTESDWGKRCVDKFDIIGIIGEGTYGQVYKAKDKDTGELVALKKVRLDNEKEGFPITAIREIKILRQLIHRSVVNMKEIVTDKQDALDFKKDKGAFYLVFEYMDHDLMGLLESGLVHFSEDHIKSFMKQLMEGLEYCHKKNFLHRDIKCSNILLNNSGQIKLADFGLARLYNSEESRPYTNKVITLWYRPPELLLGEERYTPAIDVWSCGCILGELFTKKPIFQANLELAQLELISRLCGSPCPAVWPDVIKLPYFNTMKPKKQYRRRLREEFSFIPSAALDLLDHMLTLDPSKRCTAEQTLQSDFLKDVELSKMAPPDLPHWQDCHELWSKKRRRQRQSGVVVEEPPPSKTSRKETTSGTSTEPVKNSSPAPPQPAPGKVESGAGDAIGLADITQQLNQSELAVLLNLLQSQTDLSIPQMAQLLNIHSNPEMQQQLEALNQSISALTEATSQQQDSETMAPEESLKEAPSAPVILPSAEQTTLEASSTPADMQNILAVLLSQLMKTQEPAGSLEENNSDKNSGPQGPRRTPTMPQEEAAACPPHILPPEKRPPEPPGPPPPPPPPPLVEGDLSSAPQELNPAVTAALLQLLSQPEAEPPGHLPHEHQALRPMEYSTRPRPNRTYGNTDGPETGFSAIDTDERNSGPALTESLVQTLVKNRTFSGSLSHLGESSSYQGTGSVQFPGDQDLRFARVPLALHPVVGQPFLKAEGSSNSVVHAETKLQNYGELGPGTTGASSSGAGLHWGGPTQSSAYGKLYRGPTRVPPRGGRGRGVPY
Sequence of CDK12 (O75909 whole entry partner): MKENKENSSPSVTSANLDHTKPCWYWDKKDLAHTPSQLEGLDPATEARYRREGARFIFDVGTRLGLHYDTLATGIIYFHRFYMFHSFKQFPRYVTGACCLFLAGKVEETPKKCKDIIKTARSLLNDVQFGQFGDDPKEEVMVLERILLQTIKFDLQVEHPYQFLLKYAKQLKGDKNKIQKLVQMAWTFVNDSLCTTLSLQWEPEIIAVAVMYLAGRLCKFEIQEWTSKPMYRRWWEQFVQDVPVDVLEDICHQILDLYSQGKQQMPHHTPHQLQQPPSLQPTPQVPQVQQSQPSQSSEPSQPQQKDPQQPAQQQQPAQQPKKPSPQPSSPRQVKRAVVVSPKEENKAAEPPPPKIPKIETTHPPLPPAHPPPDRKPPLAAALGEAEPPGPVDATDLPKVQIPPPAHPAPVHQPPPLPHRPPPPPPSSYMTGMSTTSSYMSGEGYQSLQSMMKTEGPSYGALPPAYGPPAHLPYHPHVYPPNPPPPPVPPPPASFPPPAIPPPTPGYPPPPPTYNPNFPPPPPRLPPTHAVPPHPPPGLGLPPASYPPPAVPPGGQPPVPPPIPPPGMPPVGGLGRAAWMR

[6] = Homo sapiens, HeLa, read-out: IC50 (µM) Hela, MTT assay, HeLa cells
[7] = Homo sapiens, HepG2, read-out: IC50 (µM) HePG- 2, MTT assay, HepG2 cells
[8] = read-out: IC50 (µM) Hela, MTT assay, HeLa cells

Compound	IC50 [1, 6] [µM]	IC50 [2] [µM]	IC50 [3] [µM]	IC50 (CDK9) [µM]	IC50 [5, 7] [µM]	IC50 (CDK12) [µM]	IC50 [1, 8] [µM]	IC50 ([5]; read-out: IC50 (µM) HePG- 2, MTT assay, HepG2 cells) [µM]	IC50 [4] [µM]
NS(=O)(=O)c1cccc(Nc2ncc(C(F)(F)F)c(-n3c(C(F)(F)F)nc4ccccc43)n2)c1 [Compound 4 l, 3-((5-(trifluoromethyl)− 4-(2-(trifluoromethyl)− 1H-benzo[d]imidazol-1-yl)pyrimidin-2-yl)amino)benzenesulfonamide]	> 50	> 50	> 50	1.67 ± 0.072	> 50	0.899 ± 0.035			18.3 ± 1.3
CC(C)c1nc2ccccc2n1-c1ccnc(Nc2cccc(S(N)(=O)=O)c2)n1 [Compound 4 m, 3-((4-(2-isopropyl-1H-benzo[d]imidazol-1-yl)pyrimidin-2-yl)amino)benzenesulfonamide]	6.39 ± 0.4	7.19 ± 0.5	2.18 ± 0.1	0.04 ± 0.002	3.56 ± 0.2	0.06 ± 0.002			> 50
NS(=O)(=O)c1cccc(Nc2ncc(C(F)(F)F)c(-n3c(C4CC4)nc4ccccc43)n2)c1 [Compound 4 t, 3-((4-(2-cyclopropyl-1H-benzo[d]imidazol-1-yl)− 5-(trifluoromethyl)pyrimidin-2-yl)amino)benzenesulfonamide]	30.3 ± 1.9	38.8 ± 2.3	27.8 ± 1.8	0.121 ± 0.005	29.3 ± 1.9	0.533 ± 0.021			> 50
NS(=O)(=O)c1cccc(Nc2nccc(-n3c(C(F)(F)F)nc4ccccc43)n2)c1 [Compound 4i, 3-((4-(2-(trifluoromethyl)− 1H-benzo[d]imidazol-1-yl)pyrimidin-2-yl)amino)benzenesulfonamide]	> 50	> 50	> 50	1.09 ± 0.047	48.3 ± 2.7	0.365 ± 0.014			> 50
NS(=O)(=O)c1cccc(Nc2ncc(F)c(-n3c(C(F)(F)F)nc4ccccc43)n2)c1 [Compound 4j, 3-((5-fluoro-4-(2-(trifluoromethyl)− 1H-benzo[d]imidazol-1-yl)pyrimidin-2-yl)amino)benzenesulfonamide]	19.4	16.8 ± 1.2	11.7 ± 0.9	0.055 ± 0.002	8.54 ± 0.7	0.104 ± 0.004	19.2 ± 1.5		> 50
CC(C)c1nc2ccccc2n1-c1nc(Nc2cccc(S(N)(=O)=O)c2)ncc1F [Compound 4n, 3-((5-fluoro-4-(2-isopropyl-1H-benzo[d]imidazol-1-yl)pyrimidin-2-yl)amino)benzenesulfonamide]	36.4 ± 2.1	43.3 ± 2.5	32.4 ± 2	0.392 ± 0.017	19.8	0.179 ± 0.007		19.9 ± 1.4	76.1 ± 3.9
CC(C)c1nc2ccccc2n1-c1nc(Nc2cccc(S(N)(=O)=O)c2)ncc1C(F)(F)F [Compound 4p, 3-((4-(2-isopropyl-1H-benzo[d]imidazol-1-yl)− 5-(trifluoromethyl)pyrimidin-2-yl)amino)benzenesulfonamide]	> 50	> 50	> 50	0.153 ± 0.007	> 50	0.664 ± 0.026			45.3 ± 2.7
NS(=O)(=O)c1cccc(Nc2nccc(-n3c(C4CC4)nc4ccccc43)n2)c1 [Compound 4q, 3-((4-(2-cyclopropyl-1H-benzo[d]imidazol-1-yl)pyrimidin-2-yl)amino)benzenesulfonamide]	9.71 ± 0.7	13.7 ± 1	8.19 ± 0.5	0.057 ± 0.002	5.88 ± 0.4	0.074 ± 0.003			31.4 ± 2.1
NS(=O)(=O)c1cccc(Nc2ncc(F)c(-n3c(C4CC4)nc4ccccc43)n2)c1 [Compound 4r, 3-((4-(2-cyclopropyl-1H-benzo[d]imidazol-1-yl)− 5-fluoropyrimidin-2-yl)amino)benzenesulfonamide]	26.5 ± 1.8	29.8 ± 1.9	16.2 ± 1.4	0.242 ± 0.01	11.4 ± 0.9	0.104 ± 0.001			> 50
COc1cccc2c1C(=O)c1c(O)c3c(c(O)c1C2=O)C[C@@](O)(C(=O)CO)C[C@@H]3O[C@H]1C[C@H](N)[C@H](O)[C@H](C)O1 [Doxorubicin, reference compound]					4.5 ± 0.2				

More lines, main results first:

IC50 [1, 6] [µM]	IC50 [2] [µM]	IC50 [3] [µM]	IC50 (CDK9) [µM]	IC50 [5, 7] [µM]	IC50 (CDK12) [µM]	IC50 [1, 8] [µM]	IC50 ([5]; read-out: IC50 (µM) HePG- 2, MTT assay, HepG2 cells) [µM]	Compound	IC50 [4] [µM]
> 50	> 50	> 50	0.782 ± 0.034	> 50	1.33 ± 0.052			NS(=O)(=O)c1cccc(Nc2ncc(C(F)(F)F)c(-n3cnc4ccccc43)n2)c1 [Compound 4 d, 3-((4-(1H-benzo[d]imidazol-1-yl)− 5-(trifluoromethyl)pyrimidin-2-yl)amino)benzenesulfonamide]	> 50
12.6	9.34 ± 0.8	5.08 ± 0.3	0.114 ± 0.005	7.59 ± 0.6	0.071 ± 0.003	12.7 ± 0.9		Cc1cnc(Nc2cccc(S(N)(=O)=O)c2)nc1-n1c(C)nc2ccccc21 [Compound 4 g, 3-((5-methyl-4-(2-methyl-1H-benzo[d]imidazol-1-yl)pyrimidin-2-yl)amino)benzenesulfonamide]	> 50
> 50	> 50	> 50	0.05 ± 0.002	> 50	0.153 ± 0.006			Cc1nc2ccccc2n1-c1nc(Nc2cccc(S(N)(=O)=O)c2)ncc1C(F)(F)F [Compound 4 h, 3-((4-(2-methyl-1H-benzo[d]imidazol-1-yl)− 5-(trifluoromethyl)pyrimidin-2-yl)amino)benzenesulfonamide]	> 50
47.2 ± 2.5	> 50	45.7 ± 2.4	0.408 ± 0.018	38.1 ± 2.3	0.189 ± 0.007			Cc1cnc(Nc2cccc(S(N)(=O)=O)c2)nc1-n1c(C2CC2)nc2ccccc21 [Compound 4 s, 3-((4-(2-cyclopropyl-1H-benzo[d]imidazol-1-yl)− 5-methylpyrimidin-2-yl)amino)benzenesulfonamide]	28 ± 2
> 50	> 50	> 50	0.396 ± 0.017	> 50	0.295 ± 0.011			NS(=O)(=O)c1cccc(Nc2nccc(-n3cnc4ccccc43)n2)c1 [Compound 4a, 3-((4-(1H-benzo[d]imidazol-1-yl)pyrimidin-2-yl)amino)benzenesulfonamide]	25.4 ± 1.8
17 ± 1.3	24.7 ± 1.7	14.2 ± 1.2	1.15 ± 0.05	22.3 ± 1.6	0.566 ± 0.022			NS(=O)(=O)c1cccc(Nc2ncc(F)c(-n3cnc4ccccc43)n2)c1 [Compound 4b, 3-((4-(1H-benzo[d]imidazol-1-yl)− 5-fluoropyrimidin-2-yl)amino)benzenesulfonamide]	46.7 ± 2.6
49.8 ± 2.7	> 50	> 50	0.041 ± 0.002	44.4 ± 2.5	0.14 ± 0.005			Cc1cnc(Nc2cccc(S(N)(=O)=O)c2)nc1-n1cnc2ccccc21 [Compound 4c, 3-((4-(1H-benzo[d]imidazol-1-yl)− 5-methylpyrimidin-2-yl)amino)benzenesulfonamide]	> 50
> 50	> 50	> 50	0.409 ± 0.018	> 50	0.425 ± 0.017			Cc1nc2ccccc2n1-c1ccnc(Nc2cccc(S(N)(=O)=O)c2)n1 [Compound 4e, 3-((4-(2-methyl-1H-benzo[d]imidazol-1-yl)pyrimidin-2-yl)amino)benzenesulfonamide]	39 ± 2.3
23.6 ± 1.7	33.5 ± 2	21.7 ± 1.7	0.762 ± 0.033	15.4 ± 1.2	1.14 ± 0.044			Cc1nc2ccccc2n1-c1nc(Nc2cccc(S(N)(=O)=O)c2)ncc1F [Compound 4f, 3-((5-fluoro-4-(2-methyl-1H-benzo[d]imidazol-1-yl)pyrimidin-2-yl)amino)benzenesulfonamide]	41.2 ± 2.5
42.8 ± 2.3	48.7 ± 2.7	39.8 ± 2.2	5.47 ± 0.236	34.1 ± 2.1	1.21 ± 0.047			Cc1cnc(Nc2cccc(S(N)(=O)=O)c2)nc1-n1c(C(F)(F)F)nc2ccccc21 [Compound 4k, 3-((5-methyl-4-(2-(trifluoromethyl)− 1H-benzo[d]imidazol-1-yl)pyrimidin-2-yl)amino)benzenesulfonamide]	> 50
> 50	> 50	> 50	1.05 ± 0.045	> 50	1.88 ± 0.073			Cc1cnc(Nc2cccc(S(N)(=O)=O)c2)nc1-n1c(C(C)C)nc2ccccc21 [Compound 4o, 3-((4-(2-isopropyl-1H-benzo[d]imidazol-1-yl)− 5-methylpyrimidin-2-yl)amino)benzenesulfonamide]	> 50
